Reference: patent publication US9992989B2, “Dual action lethal containers, systems, methods and compositions for killing adult mosquitos and larvae” (University of Florida Research Foundation, Inc., priority 2012, dated 2018)

Columns and labels:
[1] = test system: mosquito larvae; test: Dual-action ovitrap test, larval survival (Protocol D); assay type: in vivo; settings: for Mosquito larval survival / mortality versus hours of exposure: larvae in water of ovitrap treated with coating (FIGS. 9-11)
Experimental: The following protocols A, B, C and D list the flowchart methodologies for experiments that were conducted for evaluating the different coatings used. • A. Flowchart of methodology in the evaluation of adulticide coating includes the steps of: • i. Obtain preferred coating basis; • ii. Add adulticide (pyrethroids) and, if desired, an additive (CARBONXIDE™) to formulate different formulations of insecticides; • iii. Add coating on wood panels; • iv. Age wood panels in simulated environmental conditions; • v. Prepare housing for adult mosquitoes • a Place a 4-oz plastic cup upside down on coated wood panels; • vi. Place adult mosquitoes in the housing cup to expose them to insecticidal coating; • vii. Measure mosquito mortality in 1-hour, 2-hour, and 24-hour after exposure; • viii. Collect data and perform statistical analysis to determine effectiveness of adulticide coating. • B. Flowchart of methodology in the evaluation of larvicide coating can include: • i. Obtain preferred coating basis; • ii. Add larvicide (insect growth regulators) and, if desired, an additive (CARBONXIDE™); • iii. Coat filter paper and let air dry for 1-3 days; • iv. Prepare housing for larval mosquitoes; • a. Place coated filter paper in 4-oz glass jars; • b. Fill jars with unchlorinated or distilled water; • v. Place larval mosquitoes on the jars; • vi. Measure mosquito larva mortality in 12-hour intervals until all are dead or emerged as adults; • vii. Collect data and perform statistical analysis to determine effectiveness of adulticide coating. • C. Flowchart of methodology in evaluation of adulticide coating as applied in lethal ovitrap can include: • i. Obtain preferred coating basis; • ii. Add adulticide (pyrethroids) and, if desired an additive (CARBONXIDE™); • iii. Coat filter paper and let air dry for 1-3 days; • iv. Prepare oviposition cup; • a. Place coated filter paper in a 4-oz plastic cup; • b. Fill cup halfway with unchlorinated or distilled water; • v. Prepare housing for gravid (“pregnant”) females; • a. Cut a 1-inch hole on the side of a 3-gallon bucket; • b. Cover hole with ½ in foam; • vi. […]

[2] = test system: gravid females (adult mosquitoes); test: Dual-action ovitrap test, adult survival (Protocol D); assay type: in vivo, mosquito; settings: gravid females exposed to ovitrap treated with coating (FIGS. 9-11)
Experimental: (§1) The following protocols A, B, C and D list the flowchart methodologies for experiments that were conducted for evaluating the different coatings used. • A. Flowchart of methodology in the evaluation of adulticide coating includes the steps of: • i. Obtain preferred coating basis; • ii. Add adulticide (pyrethroids) and, if desired, an additive (CARBONXIDE™) to formulate different formulations of insecticides; • iii. Add coating on wood panels; • iv. Age wood panels in simulated environmental conditions; • v. Prepare housing for adult mosquitoes • a Place a 4-oz plastic cup upside down on coated wood panels; • vi. Place adult mosquitoes in the housing cup to expose them to insecticidal coating; • vii. Measure mosquito mortality in 1-hour, 2-hour, and 24-hour after exposure; • viii. Collect data and perform statistical analysis to determine effectiveness of adulticide coating. • B. Flowchart of methodology in the evaluation of larvicide coating can include: • i. Obtain preferred coating basis; • ii. Add larvicide (insect growth regulators) and, if desired, an additive (CARBONXIDE™); • iii. Coat filter paper and let air dry for 1-3 days; • iv. Prepare housing for larval mosquitoes; • a. Place coated filter paper in 4-oz glass jars; • b. Fill jars with unchlorinated or distilled water; • v. Place larval mosquitoes on the jars; • vi. […]

[3] = test system: Aedes aegypti; test: Adult mosquito mortality on aged insecticidal coatings on wood panels (Protocol A); assay type: in vivo; settings: 24 h exposure, independent of aging for approximately 2 years (FIG. 7)
Experimental: as §1

[4] = test system: Aedes albopictus; test: as above; assay type: in vivo; settings: 24 h exposure, independent of aging for approximately 2 years (FIG. 8)
Experimental: as §1

SMILES | Pupal development / adult emergence from larvae ([1]; larvae in ovitrap treated with coating (FIG. 11)) | Mosquito larval survival / mortality versus hours of exposure [1] | Adult survival / mortality versus hours of exposure [2] | Percent of Adult Mosquito Mortality [3] | Percent of Adult Mosquito Mortality [4]
CC(COc1ccc(Oc2ccccc2)cc1)Oc1ccccn1 (stereo not shown) [pyriproxyfen] | adults never emerge | killed rapidly when they start molting into the pupal stage | only normal mortality | – | –
CC1(C)C(C=C(Cl)Cl)C1C(=O)OCc1cccc(Oc2ccccc2)c1 (stereo not shown) [permethrin] | – | killed rapidly | Adult mortality does not occur until after the females have started laying eggs | 100% | 100%
